Tests used:
cytochrome P450 3A4 = target: T1, cytochrome P450 3A4 (Homo sapiens, UniProt P08684); assay: Cytochrome P450 cocktail inhibition assay, 3A4 (midazolam); type: in vitro ADME; conditions: human liver microsomes 0.1 mg/mL; read-out: CYP Inhibition (3A4)
T1 construct: human liver microsomes (HLM; 0.1 mg/mL); from tissue; host or cells: human liver microsomes
Protocol: (§1) Solutions of substrates for cytochrome P450 enzymes (1A2: Phenacetin, 10 μM; 2C9: Diclofenac, 5 μM; 2D6: Dextromethorphan, 5 μM; 3A4: Midazolam, 2 μM; as a mixture), test compound (VU6028418; multiple concentrations), and the positive control for pan-P450 inhibition (miconazole; multiple concentrations) were prepared. A reaction mixture of assay buffer (100 mM Kpi at pH 7.4), human liver microsomes (HLM; 0.1 mg/mL), and the substrate mixture were aliquoted into a 96-deepwell plate. The test compound and control were then added to the plate such that the final concentration of test compound ranged from 0.1-30 μM (two replicates per concentration). The assay plate was vortexed (briefly) and pre-incubated at 37° C. in an orbital shaker for 15 minutes. The reaction was initiated by addition of NADPH (1 mM, final concentration) and continued for 8 min before it was quenched by acetonitrile (2× volume) containing an LCMS internal standard (carbamazepine, 50 nM). The plate was then centrifuged (4000 rcf, 4° C., 10 min), and the resulting supernatant was diluted with water (1× volume) for LC-MS/MS. Assay samples were analyzed via electrospray ionization on an AB Sciex API-4000 (Foster City, Calif.) triple-quadrupole mass spectrometer coupled to Agilent Technologies 1290 Infinity series pumps (Santa Clara, Calif.), and a Leap Technologies CTC PAL auto -sampler (Carrboro, NC). Analytes were separated by gradient elution on a Phenomenex Kinetex (C18 2.1×50 mm 5 μm) column (Torrance, Calif.) thermostated at 40° C. The HPLC mobile phase A was 0.1% formic acid in water (pH unadjusted), and the mobile phase B was 0.1% formic acid in acetonitrile (pH unadjusted). […] The total run time was 2.5 min and the HPLC flow rate was 0.5 mL/min. The source temperature was set at 500° C. and mass spectral analyses were performed using multiple reaction monitoring (MRM) with mass transitions specific to each substrate's metabolite utilizing a Turbo-Ionspray® source in positive ionization mode (5.0 kV spray voltage). The test compound and control IC50 values for each enzyme were obtained by quantitating the inhibition of metabolite formation for each substrate. A 0 μM test compound (or control) conditions represented 100% enzymatic activity, and the effect of increasing test compound concentrations on enzymatic activity was then calculated from the % of control activity. Inhibition curves were fitted using XLfit 5.2.2 (four-parameter logistic model, equation 201) in order to calculate the concentration that produced half-maximal inhibition (IC50) of each enzyme.

Sprague-Dawley rats = assay: Haloperidol-induced catalepsy assay; type: in vivo, rat; conditions: for reversal of catalepsy: haloperidol 1.5 mg/kg i.p.
Protocol: Drugs. Compound 1 was weighed and 2% Tween 80/0.5% methylcellulose were placed on top of the compound in serum bottles. This was sonicated for about an hour. All doses were administrated at 10 mL/kg p.o. The final solution is a suspension. Haloperidol was dissolved in 1 mL of 8% lactic acid and taken to 50 mL with sterile water. Haloperidol was dosed at 1 mL/kg i.p.
1. Haloperidol 1.5 mg/kg, i.p.
2. Compound 1, 0.3-3 mg/kg, p.o.
3. Vehicle (2% tween 80/0.5% MC), p.o.
Animals. Male Sprague-Dawley rats weighing between 290-326 grams (Envigo, Inc., Indianapolis, Ind.) were used. They were housed in the animal care facility certified by the American Association for the Accreditation of Laboratory Animal Care (AAALAC) under a 12-hour light/dark cycle (lights on: 7 a.m.; lights off: 7 p.m.) and had free access to food and water. The experimental protocols performed during the light cycle were approved by the Institutional Animals Care and Use Committee of Vanderbilt University and conformed to the guidelines established by the National Research Council Guide for the Care and Use of Laboratory Animals.
Haloperidol-induced catalepsy. Adult male Sprague-Dawley rats are injected with 1.5 mg/kg of haloperidol i.p. Thirty minutes later, the animals are administered 0.3-3 mg/kg of Compound 1 or vehicle. Cataleptic behavior is determined 60 minutes later by placing the forelimbs on a bar raised 6 cm above the table and recording the amount of time it takes for the rat to withdraw the forelimbs with a cutoff of 60 seconds. Data are expressed as mean latency to withdraw ±SEM or percent inhibition of catalepsy ±SEM.
Data Analysis. The data for these dose-response studies were analyzed by a one way analysis of variance. If there was a main effect of dose, then each dose group was compared with each of the other treated groups using GraphPad Prism (version 4.03, GraphPad, La Jolla, Calif.).

cytochrome P450 1A2 = target: T2, cytochrome P450 1A2 (Homo sapiens, UniProt P05177); assay: Cytochrome P450 cocktail inhibition assay, 1A2 (phenacetin); type: in vitro ADME; conditions: human liver microsomes 0.1 mg/mL; read-out: CYP Inhibition (1A2)
T2 construct: human liver microsomes (HLM; 0.1 mg/mL); from tissue; host or cells: human liver microsomes
T2 sequence (P05177 1-516): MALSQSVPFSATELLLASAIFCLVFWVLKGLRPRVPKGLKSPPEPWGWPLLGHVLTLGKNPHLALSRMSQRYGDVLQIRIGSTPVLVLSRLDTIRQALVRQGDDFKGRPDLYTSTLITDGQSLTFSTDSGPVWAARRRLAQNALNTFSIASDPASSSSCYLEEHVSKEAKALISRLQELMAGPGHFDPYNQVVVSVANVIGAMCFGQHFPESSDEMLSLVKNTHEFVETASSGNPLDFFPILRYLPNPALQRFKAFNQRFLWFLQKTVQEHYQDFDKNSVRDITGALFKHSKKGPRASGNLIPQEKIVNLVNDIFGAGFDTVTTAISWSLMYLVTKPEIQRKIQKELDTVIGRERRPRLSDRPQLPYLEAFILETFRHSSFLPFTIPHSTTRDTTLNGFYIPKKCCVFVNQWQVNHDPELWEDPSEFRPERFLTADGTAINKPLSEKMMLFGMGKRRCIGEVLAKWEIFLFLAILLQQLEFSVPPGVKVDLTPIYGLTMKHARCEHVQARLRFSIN
Protocol: as §1

T1 sequence (P08684 whole entry): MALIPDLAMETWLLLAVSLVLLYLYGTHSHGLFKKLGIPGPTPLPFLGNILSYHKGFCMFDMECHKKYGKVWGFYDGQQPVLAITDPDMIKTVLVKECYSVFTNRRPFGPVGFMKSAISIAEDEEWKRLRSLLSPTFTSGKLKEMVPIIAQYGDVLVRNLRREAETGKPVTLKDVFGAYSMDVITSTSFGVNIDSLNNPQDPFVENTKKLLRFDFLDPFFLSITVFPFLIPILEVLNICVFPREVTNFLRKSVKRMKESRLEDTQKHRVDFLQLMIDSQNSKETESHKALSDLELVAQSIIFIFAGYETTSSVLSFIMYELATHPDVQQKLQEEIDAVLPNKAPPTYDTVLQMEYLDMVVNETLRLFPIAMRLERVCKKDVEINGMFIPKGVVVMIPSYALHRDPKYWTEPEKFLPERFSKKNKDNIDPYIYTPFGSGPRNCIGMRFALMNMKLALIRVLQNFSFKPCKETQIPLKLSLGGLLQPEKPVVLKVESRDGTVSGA

IC50 (cytochrome P450 3A4)	IC50 (cytochrome P450 1A2)	Structure (SMILES)	reversal of cataleptic behavior (Sprague-Dawley rats; 0.3 mg/kg)	reversal of catalepsy (Sprague-Dawley rats; 1 mg/kg p.o., rat, p<0.01)	reversal of catalepsy (Sprague-Dawley rats; 3 mg/kg p.o., rat, p<0.001)	latency to withdraw (forelimbs) compared to vehicle treated control animals (Sprague-Dawley rats; 0.3-3 mg/kg p.o., rat, F3,36=8.7 p<0.001)
> 30 µM	> 30 µM	Fc1cc(F)c(F)c(-c2ccc(N[C@H]3C[C@@H]4CN(CC5CCOCC5)C[C@@H]4C3)nn2)c1 [Compound 1, (3aR,5s,6aS)-2-((tetrahydro-2H-pyran-4-yl)methyl)-N-(6-(2,3,5-trifluorophenyl)pyridazin-3-yl)octahydrocyclopenta[c]pyrrol-5-amine]	26.2 0/0	50.9%	65.2%	significantly reduced
> 30 µM	22.6 µM	Fc1cc(F)c(F)c(-c2ccc(N[C@H]3C[C@@H]4CN(Cc5ccccn5)C[C@@H]4C3)nn2)c1 [Compound 2, (3aR,5s,6aS)-2-(pyridin-2-ylmethyl)-N-(6-(2,3,5-trifluorophenyl)pyridazin-3-yl)octahydrocyclopenta[c]pyrrol-5-amine]	–	–	–	–

From patent US20230150986A1, “ANTAGONISTS OF THE MUSCARINIC ACETYLCHOLINE RECEPTOR M4” (Vanderbilt University, priority 2019, published 2023)
